± gives the standard deviation of the averaged measurements.
Test system: RD
Experiment: relative viability vs DMSO control (72 h) (fraction); higher = more viable cells
How it was run: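 After seeding at densities set for 80–90% confluence in 384-well plates, sarcoma cell lines waited 24 h before 2.5 µl of serially diluted compound was added. Source plates held 10 mM down to 0.0002 mM. Plates were incubated 72 h at 37 °C with 5% CO2, with 0.1% DMSO vehicle and a 5 µM positive control, and relative viability was taken from ATPLite as percent growth averaged over up to triplicate wells, with 1 set as full and 0 as none.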

| SMILES | relative viability (0.00017 µM) | relative viability (0.00051 µM) | relative viability (0.00152 µM) | relative viability (0.00457 µM) | relative viability (0.01372 µM) | relative viability (0.04115 µM) | relative viability (0.1235 µM) | relative viability (0.3704 µM) | relative viability (1.111 µM) | relative viability (3.333 µM) | relative viability (10 µM) |
| --- | --- | --- | --- | --- | --- | --- | --- | --- | --- | --- | --- |
| COc1cc2/c(=N/c3ccc(Br)cc3F)nc[nH]c2cc1OCC1CCN(C)CC1 [Vandetanib] | 1.1 ± 0.074 | 1.1 ± 0.066 | 1.09 ± 0.057 | 1.11 ± 0.081 | 1.1 ± 0.055 | 1.11 ± 0.088 | 1.04 ± 0.083 | 1.01 ± 0.061 | 0.96 ± 0.037 | 0.139 ± 0.017 | 0.0241 ± 0.0083 |
| CCc1cc2c(cc1N1CCC(N3CCOCC3)CC1)C(C)(C)c1[nH]c3cc(C#N)ccc3c1C2=O [Alectinib] | 1.12 ± 0.056 | 1.09 ± 0.022 | 1.09 ± 0.051 | 1.1 ± 0.044 | 1.11 ± 0.049 | 1.11 ± 0.038 | 1.13 ± 0.045 | 1.11 ± 0.044 | 1.09 ± 0.024 | 1.054 ± 0.0068 | 1.05 ± 0.037 |
| Cc1nc(-c2cn3c(n2)-c2ccc(-c4cnn(C(C)(C)C(N)=O)c4)cc2OCC3)n(C(C)C)n1 [Taselisib] | 1.11 ± 0.018 | 1.08 ± 0.041 | 1.07 ± 0.037 | 1.06 ± 0.036 | 1.03 ± 0.028 | 0.888 ± 0.027 | 0.687 ± 0.021 | 0.524 ± 0.017 | 0.444 ± 0.027 | 0.426 ± 0.0056 | 0.36 ± 0.026 |
| O=C(Cc1ccc(-c2ccc(OCCN3CCOCC3)cc2)cn1)NCc1ccccc1 [KX2-391] | 1.03 ± 0.04 | 1.07 ± 0.055 | 1.08 ± 0.04 | 1.07 ± 0.066 | 1.02 ± 0.022 | 0.633 ± 0.022 | 0.346 ± 0.077 | 0.296 ± 0.015 | 0.304 ± 0.0065 | 0.308 ± 0.027 | 0.286 ± 0.034 |

Reference: the supplement of paper PMC10883282
